Reference: patent publication US20050234115A1, “Dosage forms and methods of treatment using VEGFR inhibitors” (Pfizer Inc., priority 2004, published 2005)
Like-named read-outs stand apart in the source and are kept apart here.

Key:
[1] = target: VEGFR-2 (Homo sapiens, UniProt P35968); assay: VEGF stimulated VEGFR-2 autophosphorylation in whole cells; assay type: cell-based
Source text: (§1) The compound of formula 1 is an anti-angiogenic small molecule inhibitor of the tyrosine kinase activity of the vascular endothelial growth factor receptor 2 (VEGFR-2). […] Angiogenesis is necessary for the growth and metastasis of all solid tumors, in that newly formed blood vessels provide nutrients for growing tumors. VEGF is highly overexpressed in a number of tumors. The therapeutic objective of the compound of formula 1 is to inhibit angiogenesis and thereby prevent tumor growth by inhibition of VEGFR-2 tyrosine kinase (TK) activity.

[2] = test system: endothelial cell; assay: endothelial cell proliferation; assay type: cell-based
Source text: as §1

[3] = hygroscopicity of the salt; assay type: physicochemical; conditions: at 90% relative humidity at ambient temperature
Procedure: The mixture was then shaken gently with heating at 50° C. for 3 hours and at ambient temperature for 3 days. The solid was filtered, dried under high vacuum to afford a white solid (468 mg, 0.823 mmol, 82%). Melting point 230° C. (DSC). Hygroscopicity: 1% (by weight)) at 90% relative humidity at ambient temperature (RH). Characteristic X-ray powder diffraction peaks (2-theta, [% relative intensity]): 8.623 [90.7], 12.121 [38.9], 17.298 [95.2], 23.397 [44.7], 23.944 [51.7], 24.119 [62.7], 24.873 [55.7], 25.948 [100], and 28.821 [39.6].

[4] = phase 1/2 study with paclitaxel and carboplatin: safety; assay type: in vivo, human patients
Procedure: (§2) Anti-tumor activity was also assessed.

[5] = test system: stage IIIb or IV NSCLC; assay: phase 1/2 study with paclitaxel and carboplatin: anti-tumor activity; assay type: in vivo, human patients; conditions: 24 patients evaluable for response, with P/C
Procedure: as §2

[6] = design: species or system human patients; conditions: in vivo
Procedure: (§3) In a phase 1 study, fifty five (55) patients were treated with the compound of formula 2 as a single agent over a dose range from 35 mg PO (oral dose) for 14 days to 400 mg PO per day continuously. Overall, 25 male and 30 female patients were treated. Patient malignancies include: NSCL (11 patients), renal and urothelial (7 patients), breast (6 patients), colorectal (7 patients), esophageal (3 patients), pancreatic (2 patients), prostate (3 patients), melanoma (2 patients), head and neck (3 patients), soft tissue sarcoma (3 patients), other (8 patients). Forty-two patients had prior chemotherapy. Three patients starting at 300 mg/d had dose reductions to 225 mg/d; 2 reductions were for grade 3 hypertension (HTN), graded by the Common Toxicity Criteria (CTC version 2), occurring between days 15 and 18; 1 additional reduction was as per the patient's request after an episode of hemoptysis in this patient with renal cell carcinoma and lung metastasis. CTC Grade 3 hypertension was initially considered dose limiting at doses of the compound of formula 2 of 300 mg/d, occurring in 2 of 6 patients. Both patients returned to CTC grade 1 or better within 7 days of holding study drug.

[7] = test system: patient malignancies (NSCL, renal and urothelial, breast, colorectal, other); assay: phase 1 single agent study: tumor response; assay type: in vivo, human patients; conditions: of 29 patients with tumor response data
Procedure: as §3
Of the 29 patients for whom tumor response data is available, 9 patients have stable disease beyond 2 cycles (more than 8 weeks) and 2 patients had stable disease beyond 4 cycles (more than 16 weeks).

[8] = phase 1 single agent study: pharmacokinetic analysis; assay type: in vivo, human patients; conditions: for AUC: 250 mg
Procedure: A preliminary pharmacokinetic analysis has been performed on the compound of formula 2 concentration data from the patients in the Phase 1 study. In the higher dose cohorts in that study, blood specimens for pharmacokinetics were collected on Day 1 and 15 of Cycle 1 at the following times: just prior to dosing and at 0.5, 1, 2, 4, 6, 8, 12, 16, and 24 hours post-dose. Blood specimens for pharmacokinetics were also collected prior to and 2 hours after dosing on Days 3, 5, and 8 of Cycle 1. […] The 1% value of the cumulative distribution of the data is 2000 ng·hr/mL and the 99% value is 25000 ng·hr/mL. […] For instance, the 99% value for a dose of 300 mg is predicted to be 25000 ng·hr/mL times 1.2 (300 divided by 250) which equals 30000 ng·hr/mL. The 1% value for a dose of 125 mg is predicted to be 2000 ng·hr/mL times 0.5 (125 divided by 250) which equals 1000 ng·hr/mL. Similar calculations provide predictions of the 1% (lower) and 99% (upper) values of the cumulative distribution of 24-hour AUC values for doses of 150 mg, 180 mg, 260 mg, and 280 mg.

[9] = clinical; conditions: human, plasma, oral
Source text: (§4) With daily (i.e., QD) dosing, the 24-hour AUC value (i.e., the dosing interval AUC value) is a standard measure of systemic exposure to the compound.
(§5) A phase 1/2 study examined the safety and PK of escalating oral QD doses of the hydrochloride salt of the compound of formula 1, viz., the hydrochloride salt of 3-(4-Bromo-2,6-difluoro-benzyloxy)-5-[3-(4-pyrrolidin-1-yl-butyl)-ureido]-isothiazole-4-carboxylic acid amide (i.e., compound of formula 2 shown above), given in combination with paclitaxel (P) (225 mg m^2) and carboplatin (C) (AUC=6) administered in 21 day cycles to chemotherapy naïve patients with PS 0-1 stage IIIb or IV NSCLC with or without stable brain mets and PS 0-1.

[10] = phase 1/2 study with paclitaxel and carboplatin: PK; conditions: doses ≧150 mg QD
Source text: as §4, §5

Chain of VEGFR-2 (P35968 20-1356): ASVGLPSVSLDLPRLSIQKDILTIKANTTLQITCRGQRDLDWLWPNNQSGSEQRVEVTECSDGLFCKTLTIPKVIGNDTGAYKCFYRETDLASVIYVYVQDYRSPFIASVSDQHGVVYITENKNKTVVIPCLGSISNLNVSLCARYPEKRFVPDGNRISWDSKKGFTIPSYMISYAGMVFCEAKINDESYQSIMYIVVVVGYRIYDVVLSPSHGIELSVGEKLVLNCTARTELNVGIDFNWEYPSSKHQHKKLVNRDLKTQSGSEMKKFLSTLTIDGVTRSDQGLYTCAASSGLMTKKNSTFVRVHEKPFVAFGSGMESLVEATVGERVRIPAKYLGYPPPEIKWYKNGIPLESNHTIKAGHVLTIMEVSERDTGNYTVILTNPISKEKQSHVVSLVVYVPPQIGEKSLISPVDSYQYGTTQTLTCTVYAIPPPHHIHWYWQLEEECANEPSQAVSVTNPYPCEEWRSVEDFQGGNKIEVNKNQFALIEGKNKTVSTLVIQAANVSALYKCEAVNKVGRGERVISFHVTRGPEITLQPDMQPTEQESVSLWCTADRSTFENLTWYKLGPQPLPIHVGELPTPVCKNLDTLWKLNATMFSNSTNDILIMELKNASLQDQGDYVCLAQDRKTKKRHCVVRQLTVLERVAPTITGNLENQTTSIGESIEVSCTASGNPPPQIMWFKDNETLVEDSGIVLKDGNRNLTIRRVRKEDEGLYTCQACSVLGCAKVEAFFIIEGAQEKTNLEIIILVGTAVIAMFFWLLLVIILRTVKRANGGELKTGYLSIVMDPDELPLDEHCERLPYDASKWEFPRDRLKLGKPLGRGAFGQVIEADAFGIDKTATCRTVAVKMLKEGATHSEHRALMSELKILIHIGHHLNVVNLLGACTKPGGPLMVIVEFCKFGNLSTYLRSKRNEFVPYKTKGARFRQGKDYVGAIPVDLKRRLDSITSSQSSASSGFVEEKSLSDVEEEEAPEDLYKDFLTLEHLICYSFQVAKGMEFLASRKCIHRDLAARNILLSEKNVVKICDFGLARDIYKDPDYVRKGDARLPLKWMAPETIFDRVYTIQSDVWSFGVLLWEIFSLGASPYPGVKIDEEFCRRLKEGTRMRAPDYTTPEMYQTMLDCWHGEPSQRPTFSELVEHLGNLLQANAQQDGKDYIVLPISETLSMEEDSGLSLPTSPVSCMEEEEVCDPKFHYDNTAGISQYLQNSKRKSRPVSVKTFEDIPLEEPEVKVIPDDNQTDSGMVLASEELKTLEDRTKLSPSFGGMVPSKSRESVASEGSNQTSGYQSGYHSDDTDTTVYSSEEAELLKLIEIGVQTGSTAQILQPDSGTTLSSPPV

NC(=O)c1c(OCc2c(F)cc(Br)cc2F)nsc1NC(=O)NCCCCN1CCCC1 [compound of formula 1]
inhibition of VEGF stimulated VEGFR-2 autophosphorylation [1]: inhibits VEGF stimulated VEGFR-2 autophosphorylation in whole cells
inhibition of endothelial cell proliferation [2]: inhibits endothelial cell proliferation

Cl.NC(=O)c1c(OCc2c(F)cc(Br)cc2F)nsc1NC(=O)NCCCCN1CCCC1 [compound of formula 2]
Hygroscopicity [3]: 1 % (by weight)
most common treatment emergent adverse events ([4]; in vivo): diarrhea, fatigue, nausea, neuropathy, emesis, alopecia, dyspnea and arthralgia/myalgia
safety of combination with standard doses of P/C ([4]; in vivo, po): can be safely combined with standard doses of P/C
maximum tolerable dose ([4]; oral QD with paclitaxel 225 mg/m2 and carboplatin AUC=6, 21 day cycles, NSCLC patients): 200 mg/day
objective response rate [5]: 20%
progressive disease rate [5]: 33%
CTC Grade 3 hypertension (initially considered dose limiting) ([6]; both, human): 2 of 6
dermatologic events reported by more than one patient ([6]; both, human): grade 2 venostasis rash, which occurred in cycle 2, and grade 1 pallor and shingles
events in patient dose reduced from 400 mg to 350 mg ([6]; both, human): grade 3 fatigue
patients with dose limiting toxicities ([6]; both, human): None of the 4
patients with dose limiting toxicity ([6]; both, human): 1 of 10
recommended Phase 2 single agent dose ([6]; both, human): 250 mg
reports of grade 3 diarrhea ([6]; both, human): 3 reports
maximum administered dose ([6]; both, human, po): 400 mg
events in patient further dose reduced to 300 mg [6]: severe renal hemorrhage, alveolar hemorrhage and gastrointestinal hemorrhage
other gastrointestinal adverse events occurring in 2 or more patients [6]: nausea, taste disturbance, anorexia and mouth dryness
patients with stable disease beyond 2 cycles (more than 8 weeks) [7]: 9 patients
patients with stable disease beyond 4 cycles (more than 16 weeks) [7]: 2 patients
drug concentrations versus predicted efficacious concentrations ([8]; 250 mg daily dose): consistently above the lowest predicted human efficacious concentrations
24-hour AUC, predicted 1% value of the cumulative distribution ([8]; dose of 125 mg, assuming dose proportionality): 1000 ng·h/mL
24-hour AUC, predicted 99% value of the cumulative distribution ([8]; dose of 300 mg, assuming dose proportionality): 30000 ng·h/mL
AUC ([8]; human, plasma, oral, 250 mg QD, 19 patients, log-normal distribution, read-out: 24-hour AUC, geometric mean): 7260 ng·h/mL
AUC ([8]; human, plasma, oral, 250 mg QD, 19 patients, read-out: 24-hour AUC values, range): 2880 to 18700 ng·h/mL
AUC ([8]; human, plasma, oral, 250 mg QD, 19 patients, read-out: 24-hour AUC, 1% value of the cumulative distribution): 2000 ng·h/mL
AUC ([8]; human, plasma, oral, 250 mg QD, 19 patients, read-out: 24-hour AUC, 99% value of the cumulative distribution): 25000 ng·h/mL
Cmax ([8]; human, plasma, oral, 250 mg QD, 19 patients, standard deviation 240 ng/mL, read-out: mean Cmax (maximum observed plasma concentration)): 457 ng/mL
half-life [9]: ~32 h
plasma concentrations achieved [10]: within the range associated with anti-angiogenesis in preclinical models
